“And” between values parts separate entries of the source, which are not always exact repeats. Identical values can stand only once.
How the values were obtained:
[1] = tested on: skeletal myocytes from an FSHD1 patient (05Abic); assay: shRNA knockdown screen in terminally differentiated FSHD myocytes, gene expression by qRT-PCR; format: cell-based, human; conditions: harvested 4 days after second infection, Mock = 1
Description: A screen to identify genes involved in DUX4 expression (e.g., when the expression of these genes is reduced in FSHD muscle cells, DUX4 expression also decreases) was performed. Briefly, primary differentiated myocytes derived from subjects having FSHD were treated with shRNA targeting candidate genes and the expression level of pathogenic DUX4-fl mRNA was quantified. The expression levels of other myogenic regulators (e.g., Myogenin, MyoD, MyHD) and other targets (e.g., FRG1, UTRN, and 18S) were also quantified to assess indirect effects of DUX4 knockdown. A sample screening protocol is shown below:
• 1. Expand low passage primary FSHD myoblasts. • 2. Plate into 6-well plates. • 3. Allow cells to reach confluence and differentiate (approximately 48 hours). • 4. Infect cells with lentiviral shRNA construct and incubate for 24 hours. • 5. Re-infect cells with lentiviral shRNA construct. • 6. Harvest cells 4 days after second infection. • 7. Extract RNA from cells and assay for expression level of DUX4-fl and other genes of interest.
(§1) Myogenic cultures derived from biceps muscles of unrelated FSHD1 patients (05Abic, 17Abic, and 18Abic) were grown in Ham's F-10 medium supplemented with 20% FBS (Hyclone), 0.5% chick embryo extract, 1% antibiotics & antimycotics, and 1.2 mM CaCl2. 293T packaging cells were grown in DMEM+10% FBS+0.1% […]. For shRNA knockdown experiments, 293T cells were transfected with lentiviral packaging plasmid (pCMV-dR8.91), envelope plasmid (VSV-G), and SIGMA MISSION shRNA expression plasmids. Lentiviral supernatants were harvested, aliquoted, and frozen at −80° C. FSHD1 skeletal myoblasts were seeded in collagen-coated 6-well plates (for gene expression analysis) or 10-cm plates (for ChIP) and grown to confluence, then allowed to self-differentiate in growth medium for ˜48 h. Cells were subjected to two rounds of infection. Briefly, lentiviral supernatants+8 μg/ml polybrene were added to cultures and the plates were incubated for 15 min at 37° C., then wrapped well with parafilm before centrifuging for 30 min at 1100 g (32° C.). Following centrifugation, the viral supernatants were replaced with growth medium. Cells were maintained in growth medium and harvested 4 d after the last round of infection. For dCas9-KRAB infections, 293T cells were transfected with lentiviral packaging plasmid (pCMV-dR8.91), envelope plasmid (VSV-G), and either dCas9-KRAB expression plasmid (#50919) or sgRNA expression plasmid using the TransIT-LT1 transfection reagent. Lentiviral supernatants were harvested at […] from 72-108 h post-transfection. FSHD1 skeletal myoblasts were seeded in collagen-coated 6-well plates and grown to ˜80% confluency, then subjected to four serial infections over two days. Cells were allowed to recover for ˜8 h in growth medium prior to the next round of infection. Following the last infection, these self-differentiated cultures were maintained in growth medium for 72 h prior to harvesting.
Total RNAs were extracted using TRIzol (Invitrogen) and purified using the RNeasy Mini kit (Qiagen) after on-column DNase I digestion. Total RNA (2 μg) was used for cDNA synthesis using Superscript III Reverse Transcriptase (Invitrogen), and 200 ng of cDNA were used for qPCR analysis.
The D4Z4 macrosatellite array that encodes DUX4 is normally under strong epigenetic repression in adult somatic cells. […] Thirty-six candidate activators of DUX4 fl were investigated as potential drug targets (Table 3). These candidates include transcriptional regulators, chromatin remodelers, and histone modifying enzymes. For the initial screen, skeletal myocytes from an FSHD1 patient (05Abic) which express consistent and relatively high levels of DUX4 fl when terminally differentiated were used. Using lentivirus-encoded shRNAs, each candidate was knocked down in terminally differentiated cultures, then cells were harvested four days later and assessed for expression of DUX4 fl and other genes.

[2] = tested on: primary myoblasts isolated from FSHD1-affected and FSHD-asymptomatic patients; assay: small molecule treatment of primary myoblasts, DUX4 expression; format: cell-based, human; conditions: alone, or in combination; FIG. 15
Source text: Trichostatin A (TSA) is a histone deacetylase inhibitor, 5-aza-2′-deoxycytidine (5′ADC) is a DNA methylation inhibitor and chaetocin (CH) is a histone methyltransferase inhibitor.

[3] = tested on: FSHD myocytes (05Abic, 18Abic, and 17Abic); assay: shRNA knockdown across FSHD cohorts, DUX4-fl by qRT-PCR; format: cell-based, human; conditions: FIG. 11F
Source text: FIGS. 11A-11F show shRNA knockdown of epigenetic regulators reduces expression of DUX4-fl in FSHD myocytes. Differentiated FSHD myocytes were infected in two serial rounds with shRNAs to ASH1L (FIG. 11A), BAZ1A (FIG. 11B), BRD2 (FIG. 11C), KDM4C (FIG. 11D), SMARCA5 (FIG. 11E), or a scrambled control. Four days later, cells were harvested for analysis of the full-length DUX4 isoform (DUX4-fl), Myogenin (Myog), MyoD, Myosin heavy chain 1 (MyHC), FRG1, Utrophin (Utr), and 18S gene expression by qRT-PCR. […] In all panels, relative mRNA expression for mock or control-infected cells is set to 1. Data are plotted as the mean+SD value of technical replicates.
as §1
Total RNAs were extracted using TRIzol (Invitrogen) and purified using the RNeasy Mini kit (Qiagen) after on-column DNase I digestion. […]

[4] = tested on: primary FSHD muscle cells (09Abic); assay: JQ1 treatment time course, gene expression; format: cell-based, human
Source text: (§2) DUX4 expression is induced during myogenic differentiation, and blocking or slowing down this process, as the case with JQ1, give the appearance of inhibiting DUX4 expression, when in fact it is merely altering the kinetics of myoginc differentiation. Importantly, these genes are misregulated by JQ1 in both FSHD and healthy human skeletal muscle myoblasts (HSMM) (FIG. 17). Therefore, JQ1 is an example of a non-specific small molecule and not appropriate for use as an FSHD therapeutic.

[5] = tested on: healthy human skeletal muscle myoblasts (HSMM); assay: JQ1 treatment of healthy myoblasts, myogenic gene expression; format: cell-based; conditions: FIG. 17
Source text: as §2

Molecule	18S relative gene expression [1]	D4-fl relative gene expression [1]	FRG1 relative gene expression [1]	MyHC relative gene expression [1]	MyoD relative gene expression [1]	Myog relative gene expression [1]	Utr relative gene expression [1]	DUX4 expression (in words) [2]	DUX4-fl expression (in words) [3]	DUX4 expression (in words) ([4]; 09Abic)	expression of downstream genes TRIM43 and ZSCAN4 (in words) ([4]; 09Abic)	expression of myogenic regulatory genes myogenin (Myog), myoD, myosin heavy chain (MyHC), and myostatin (Myost) (in words) ([4]; time course of treatment, FIG. 16)	myogenic genes (Myog, myoD, MyHC) (in words) [5]
PJ12: shRNA targeting BRD2; SEQ ID NO: 11 (guide CCGGGCCCTCTTTACGTGATTCAAACTCGAGTTTGAATCACGTAAAGAGGGCTTTTT)	1.099	0.1127	1.178	0.7927	0.904	1.088	0.6755						
PJ2: shRNA targeting ASH1L; SEQ ID NO: 5 (guide CCGGCCTGCCAAATACCATAAGAAACTCGAGTTTCTTATGGTATTTGGCAGGTTTTT)	1.311	0.1371	1.172	0.7221	0.8503	0.8845	0.815						
PJ73: shRNA targeting KDM4C; SEQ ID NO: 1 (guide CCGGGCCTCTGACATGCGATTTGAACTCGAGTTCAAATCGCATGTCAGAGGCTTTTT)	1.253	0.1101	1.043	0.7968	0.9045	1.338	0.6393						
Nc1ncn([C@H]2C[C@H](O)[C@@H](CO)O2)c(=O)n1 [5-aza-2′-deoxycytidine]								affect DUX4 expression					
CC(/C=C/C(=O)NO)=C\[C@@H](C)C(=O)c1ccc(N(C)C)cc1 [Trichostatin A]								affect DUX4 expression					
PJ3: shRNA targeting ASH1L; SEQ ID NO: 6 (guide CCGGCGTACTTTGTTTATCCCAGAACTCGAGTTCTGGGATAAACAAAGTACGTTTTT)	1.185	0.2434	1.141	1.341	0.9895	0.7218	1.128						
PJ195: shRNA targeting SMARCA5; SEQ ID NO: 7 (guide CCGGGTTCTTTAATTTACGGGTCTTCTCGAGAAGACCCGTAAATTAAAGAACTTTTT)	0.9905	0.168	0.9865	0.7803	0.8981	0.8003	1.024						
PJ11: shRNA targeting BRD2; SEQ ID NO: 10 (guide CCGGCCCTTTGCTGTGACACTTCTTCTCGAGAAGAAGTGTCACAGCAAAGGGTTTTT)	1.112	0.124	1.25	0.7342	0.9277	1.026	0.6067		reduce DUX4-fl expression				
PJ152: shRNA targeting BAZ1A; SEQ ID NO: 9 (guide CCGGGCGATGAAGAAGAAGGTCAAACTCGAGTTTGACCTTCTTCTTCATCGCTTTTTG)	1.312	0.1892	0.9047	0.8503	0.991	1.318	0.954						
PJ196: shRNA targeting SMARCA5; SEQ ID NO: 8 (guide CCGGCCGGGCAAATAGATTCGAGTACTCGAGTACTCGAATCTATTTGCCCGGTTTTT)	0.9807 and 1.048	0.1085 and 0.1967	0.8974 and 0.9209	0.469 and 0.5926	0.722 and 0.9103	0.9247 and 0.9293	0.8261 and 1.231		reduce DUX4-fl expression				
PJ1: shRNA targeting ASH1L; SEQ ID NO: 4 (guide CCGGCGACATAAACTTGACATCTTTCTCGAGAAAGATGTCAAGTTTATGTCGTTTTT)	1.372	0.3399	1.051	1.066	0.7238	1.795	0.6994		reduce DUX4-fl expression				
PJ74: shRNA targeting KDM4C; SEQ ID NO: 2 (guide CCGGGCAGAGAGTAATGGTGTGTTACTCGAGTAACACACCATTACTCTCTGCTTTTT)	1.129	0.08801	1.211	0.7642	0.7621	1.81	0.7121		reduce DUX4-fl expression				
Cc1sc2c(c1C)C(c1ccc(Cl)cc1)=N[C@@H](CC(=O)OC(C)(C)C)c1nnc(C)n1-2 [JQ1]										appears to inhibit	appears to inhibit	inhibiting the expression	misregulated
PJ75: shRNA targeting KDM4C; SEQ ID NO: 3 (CCGGGCCCAAGTCTTGGTATGCTATCTCGAGATAGCATACCAAGACTTGGGCTTTTT)	0.9781	0.1812	0.7766	0.9826	1.048	1.318	1.018						

From patent US11963975B2, “Therapeutic targets for facioscapulohumeral muscular dystrophy” (University of Massachusetts, priority 2016, dated 2024)
